# According to patent US5929099A, “Pharmaceutical composition for inhibiting the growth of cancers” (Procter & Gamble Co., priority 1996, dated 1999):
# Like-named read-outs stand apart in the source and are kept apart here.
# Legend:
# [1] = tested on: HIV-1 in chronic infected ACH-2 cells (T-cell); assay: HIV chronic study, T-cell HIV replication; type: cell-based; conditions: Human immunodeficiency virus 1, ACH-2; positive control AZT (1 μg/ml); read-out: suppressed T-cell HIV replication
# Description: (§1) These cells were treated with test samples.
# [2] = tested on: HIV-1 in chronic infected U1 cells (HIV monocytes); assay: HIV chronic study, monocyte HIV replication; type: cell-based; conditions: Human immunodeficiency virus 1, Monocyte; 1 μg/ml; positive control; read-out: suppressed HIV monocytes replication
# Description: as §1
# HIV = assay: In vitro acute model for HIV, viral replication; type: cell-based; conditions: Human immunodeficiency virus 1, 1 μg/ml, read-out: inhibited viral replication
# Description: In an in vitro acute model for HIV carbendazim inhibited viral replication by 100% at 4 μg/ml and AZT inhibited viral replication by 98% at 1 μg/ml. Thiabendazole inhibited viral replication by 98% at 60 μg/ml.
# HIV-1 = assay: HIV chronic study, therapeutic index
# Description: Chronic HIV-1 infected cells U1 were derived from an acute HIV-1 infection of the promonocytic cell line, U937. The chronic HIV-1 infected cells, ACH-2 were derived from an acute HIV-1 infection of the T cell line, A3.01.
# These cells were cultured in medium and the phorbol ester, PMA. […] Cell viability was measured when these cell lines were treated with the test compounds.
# In addition, the number of institute positive HIV mRNA expressing cells per microscopic field is measured. Comparisons can be made from these numbers since the same number of cells were adhered to the glass slides for each drug concentration (10×10^6 cells/ml).
# [3] = Toxicity to normal healthy cells (Table 2); type: cell-based; conditions: read-out: EC-50 (the source's name)
# Description: The EC50 is the concentration at which one half of the cells are killed.
# In normal healthy cells, the following results were obtained.
# [4] = tested on: colon, breast and lung human tumor cells; assay: Colon, breast and lung tumor cells test, overall comparison; type: cell-based; conditions: positive control, in all cases
# Description: (§2) The following cell culture tests were performed to test the toxicity of the benzimidazole compounds on colon, breast and lung human tumor cells. The viability of the cells were tested by looking at MTT (3-[4,5-dimethylthiazol-2-yl]-2,5-diphenyltetrazolium bromide) reduction. MTT assay is a well known measure of cell viability.
# (§3) The colon tumor cells (HT29 from American Type Culture Collection (ATCC)) and the breast cells (MX1 from cell lines from ATCC) were cultured in Eagle's Miminal Essential Medium with 10% fetal bovine serum. The lung tumor cells (A549 from ATCC cell lines) were cultured in Ham's F12 medium with 10% fetal bovine serum.
# The tumor cells were passaged and seeded into culture flasks at the desired cell densities. The culture medium was decanted and the cell sheets were washed twice with phosphate buffered saline (PBS). The cells were trypsinized and triturated prior to seeding the flasks. […]
# The cells were subcultured when the flasks were subconfluent. […] The concentration of cells in the suspension was determined, and an appropriate dilution was made to obtain a density of 5000 cells/ml. […]
# (§4) The absorbance at 550 mn (OD550) of each well was measured with a Molecular Devices (Menlo Park, Calif.) VMax plate reader.
# The mean OD550 of the solvent control wells and that of each test article dilution, and that of each of the blank wells and the positive control were calculated. […]
# MX1 breast tumor cells = assay: MTT cell viability, breast tumor cells (Table 1); type: cell-based; conditions: Homo sapiens, 120 h, approx. 5 days, read-out: EC-50 Result
# Description: as §2, §3
# (§5) The tumor cells were passaged and seeded into culture flasks at the desired cell densities. The culture medium was decanted and the cell sheets were washed twice with phosphate buffered saline (PBS). The cells were trypsinized and triturated prior to seeding the flasks. Unless otherwise indicated the cultures were incubated at 37±1° C. in a humidified atmosphere of 5±1% carbon dioxide in air. The cultures were incubated until they were 50-80% confluent.
# (§6) The cells were subcultured when the flasks were subconfluent. The medium was aspirated from the flasks and the cell sheets rinsed twice with PBS. Next, the Trypsin Solution was added to each flask to cover the cell sheet. The Trypsin Solution was removed after 30-60 seconds and the flasks were incubated at room temperature for two to six minutes. When 90% of the cells became dislodged, growth medium was added. The cells were removed by trituration and transferred to a sterile centrifuge tube. The concentration of cells in the suspension was determined, and an appropriate dilution was made to obtain a density of 5000 cells/ml. The cells were subcultured into the designated wells of the 96-well bioassay plates (200 microliter cell suspension per well). PBS was added to all the remaining wells to maintain humidity. The plates were then incubated overnight before test article treatment.
# (§7) Each dose of test article was tested by treating quadruplicate wells of cultures with 100 microliter of each dilution. Those wells designated as solvent controls received an additional 100 microliter of methanol control; negative controls wells received an additional 100 microliters of treatment medium. PBS was added to the remaining wells not treated with test article or medium. The plates were then incubated for approximately 5 days.
# (§8) At the end of the 5 day incubation, each dose group was examined microscopically to assess toxicity. A 0.5 mg/ml dilution of MTT was made in treatment medium, and the dilution was filtered through a 0.45 micrometer filter to remove undissolved crystals. The medium was decanted from the wells of the bioassy plates. Immediately thereafter, […] of the filtered MTT solution was added to all test wells except for the two untreated blank test wells. The two blank wells received 200 microliters of treatment medium. The plates were returned to the incubator for about 3 hours. After incubation, the MTT containing medium was decanted. […] was added to each well and the plates were shaken at room temperature for about 2 hours.
# as §4
# (§9) The mean OD550 of the solvent control wells and that of each test article dilution, and that of each of the blank wells and the positive control were calculated. The mean OD550 of the blank wells was subtracted from the mean of the solvent control wells, and test article wells, respectively to give the corresponding mean OD550. [formula]
# (§10) Dose response curves were prepared as semi-log plots with % of control on the ordinate (linear) and the test article concentration on the abscissa (logarithmic). The EC50 was interpolated from the plots for each test article.
# (§11) For the test articles administered in methanol, separate responses were prepared to correct for the methanol data. […]
# HT29 colon tumor cells = assay: MTT cell viability, colon tumor cells (Table 1); type: cell-based; conditions: Homo sapiens, HT-29, 120 h, approx. 5 days, read-out: EC-50 Result
# Description: as §2, §3, §5, §6, §7, §8, §4, §9, §10, §11
# A549 lung tumor cells = assay: MTT cell viability, lung tumor cells (Table 1); type: cell-based; conditions: Homo sapiens, A549, 120 h, approx. 5 days, read-out: EC-50 Result
# Description: as §2, §3, §5, §6, §7, §8, §4, §9, §10, §11
# melanoma = assay: In vivo mouse model for melanoma, combination with Navelbine, survival time
smiles,measurement,setting,value
Cc1cn([C@H]2C[C@H](N=[N+]=[N-])[C@@H](CO)O2)c(=O)[nH]c1=O [AZT],inhibition at 1 µg/mL,[1],60%
same,inhibition at 1 µg/mL,[2],98%
same,inhibition at 1 µg/mL,HIV,98%
same,"therapeutic index (TI), the ratio of the toxic dose of drug to efficacious dose of drug",HIV-1,"12, 500"
COc1cccc2c1C(=O)c1c(O)c3c(c(O)c1C2=O)C[C@@](O)(C(=O)CO)C[C@@H]3O[C@H]1C[C@H](N)[C@H](O)[C@H](C)O1 [Adriamycin],CC50,"[3]; bronchial cells, Broncheal Cells, first value",0.015 µg/mL
same,CC50,"[3]; bronchial cells, Broncheal Cells, second value",0.002 µg/mL
same,CC50,"[3]; fibroblasts, first value",0.065 µg/mL
same,CC50,"[3]; fibroblasts, second value",0.1 µg/mL
same,CC50,"[3]; kerotinoyle cells, first value",0.0035 µg/mL
same,CC50,"[3]; kerotinoyle cells, second value",0.0093 µg/mL
same,toxicity relative to the test materials,[4],more toxic than any of the test materials by one or two logs
same,IC50,"MX1 breast tumor cells; MX1, first column",0.02 µg/mL
same,IC50,"MX1 breast tumor cells; MX1, second column",0.001 µg/mL
same,IC50,"HT29 colon tumor cells; HT29, first column",0.03 µg/mL
same,IC50,"HT29 colon tumor cells; HT29, second column",0.006 µg/mL
same,IC50,"A549 lung tumor cells; A549, first column",0.03 µg/mL
same,IC50,"A549 lung tumor cells; A549, second column",0.009 µg/mL
CCC1=C[C@@H]2CN(C1)Cc1c([nH]c3ccccc13)[C@@](C(=O)OC)(c1cc3c(cc1OC)N(C)[C@H]1[C@@](O)(C(=O)OC)[C@H](OC(C)=O)[C@]4(CC)C=CCN5CC[C@]31[C@@H]54)C2 [Navelbine],% increase in survival time vs. untreated mice,melanoma; Navelbine alone 0.5 mg/kg,190%
same,% increase in survival time vs. untreated mice,melanoma; Navelbine alone 1.0 mg/kg,245%
same,% increase in survival time vs. untreated mice,melanoma; Navelbine alone 2.0 mg/kg,265%
